Reference: US20040219214A1, “Tissue reactive compounds and compositions and uses thereof” (Angiotech International AG, priority 2002, published 2004)

What was measured:
[1] = test system: TNFα production by THP-1 cells; assay: TNF-alpha production by macrophages (ELISA); format: cell-based, human; details: opsonized zymosan stimulation, 24 hours; average of n=4 experiments
Description: The human macrophage cell line, THP-1 is plated in a 12 well plate such that each well contains 1×10^6 cells in 2 mL of media containing 10% FCS. Opsonized zymosan is prepared by resuspending 20 mg of zymosan A in 2 mL of ddH2O and homogenizing until a uniform suspension is obtained. Homogenized zymosan is pelleted at 250 g and resuspended in 4 mL of human serum for a final concentration of 5 mg/mL. and incubated in a 37° C. water bath for 20 minutes to enable opsonization. Bay 11-7082 is prepared in DMSO at a concentration of 10^−2 M and serially diluted 10-fold to give a range of stock concentrations (10^−8 M to 10^−2 M) (J. Immunol. (2000) 165: 411-418; J. Immunol. (2000) 164: 4804-4811; J. Immunol Meth. (2000) 235 (1-2): 33-40).
THP-1 cells are stimulated to produce TNFα by the addition of 1 mg/mL opsonized zymosan. […]
After a 24 hour stimulation, supernatants are collected to quantify TNFα production. TNFα concentrations in the supernatants are determined by ELISA using recombinant human TNFα to obtain a standard curve. […] The dilution of Capture Antibody used is lot-specific and is determined empirically. […] Stop Solution (2 N H2SO4) is then added to the wells and a yellow colour reaction is read at 450 nm with A correction at 570 nm. Mean absorbance is determined from triplicate data readings and the mean background is subtracted. […]

[2] = test system: nitric oxide production in RAW 264.7 cells; assay: Nitric oxide production by macrophages (Greiss assay); format: cell-based, murine; details: Mus musculus, RAW264.7; IFNγ and LPS stimulation, 24 hours; average of n=4 experiments
Description: The murine macrophage cell line RAW 264.7 is trypsinized to remove cells from flasks and plated in individual wells of a 6-well plate. Approximately 2×10^6 cells are plated in 2 mL of media containing 5% heat-inactivated fetal bovine serum (FBS). RAW 264.7 cells are incubated at 37° C. for 1.5 hours to allow adherence to plastic. Mitoxantrone is prepared in DMSO at a concentration of 10^−2 M and serially diluted 10-fold to give a range of stock concentrations (10^−8 M to 10^−2 M). Media is then removed and cells are incubated in 1 ng/mL of recombinant murine IFNγ and 5 ng/mL of LPS with or without mitoxantrone in fresh media containing 5% FBS. Mitoxantrone is added to cells by directly adding mitoxantrone DMSO stock solutions, prepared earlier, at a 1/1000 dilution, to each well. Plates containing IFNγ, LPS plus or minus mitoxantrone are incubated at 37° C. for 24 hours (Chem. Ber. (1879) 12: 426; J. AOAC (1977) 60-594; Ann. Rev. Biochem. (1994) 63: 175).
At the end of the 24 hour period, supernatants are collected from the cells and assayed for the production of nitrites. […] Optical density is read immediately on microplate spectrophotometer at 562 nm absorbance. Absorbance over triplicate wells is averaged after subtracting background and concentration values are obtained from the nitrite standard curve (1 μM to 2 mM). […]

[3] = test system: human fibroblasts; assay: Screening assay for effect on cell proliferation (CYQUANT); format: cell-based; details: Fibroblast, 72 hours incubation, average of n=4 experiments
Description: Fibroblasts at 70-90% confluency are trypsinized, replated at 600 cells/well in media in 96-well plates and allowed to attachment overnight. Mitoxantrone is prepared in DMSO at a concentration of […] and diluted 10-fold to give a range of stock concentrations (10^−8 M to 10^−2 M). Drug dilutions are diluted 1/1000 in media and added to cells to give a total volume of 200 μL/well. Each drug concentration is tested in triplicate wells. Plates containing fibroblasts and mitoxantrone are incubated at 37° C. for 72 hours (In vitro toxicol. (1990) 3: 219; Biotech. Histochem. (1993) 68: 29; Anal. Biochem. (1993)213: 426).
To terminate the assay, the media is removed by gentle aspiration. A 1/400 dilution of CYQUANT 400× GR dye indicator (Molecular Probes; Eugene, Oreg.) is added to 1× Cell Lysis buffer, and 200 μL of the mixture is added to the wells of the plate. Plates are incubated at room temperature, protected from light for 3-5 minutes. Fluorescence is read in a fluorescence microplate reader at ˜480 nm excitation wavelength and ˜520 nm emission maxima. Inhibitory concentration of 50% (IC50) is determined by taking the average of triplicate wells and comparing average relative fluorescence units to the DMSO control. An average of n=4 replicate experiments is used to determine IC50 values. (IC50=20 nM for proliferation of human fibroblasts).

Row | IC50 [1] | SMILES | IC50 [2] | IC50 [3]
1 | 810 nM | Cc1ccc(S(=O)(=O)/C=C/C#N)cc1 [Bay 11-7082] | – | –
2 | – | O=C1c2c(O)ccc(O)c2C(=O)c2c(NCCNCCO)ccc(NCCNCCO)c21 [Mitoxantrone, 9,10-Anthracenedione, 1,4-dihydroxy-5,8-bis((2-((2-hydroxyethyl)amino]ethyl]amino]-] | 927 nM | 20 nM
